The source of these data is patent US20260200920A1, “SUBSTITUTED AMINOPYRIDINE COMPOUNDS FOR USE AS AKT1 INHIBITORS” (Atavistik Bio, Inc., priority 2023, published 2026).

In test [1] the target is T1, human recombinant kinase full-length AKT1 E17K (Homo sapiens, UniProt P31749, E17K).
T1 construct: Purified human recombinant kinase full-length AKT1 E17K was expressed in insect cells; made in house; host or cells: insect cells
Description: AKT1 E17K kinase assay (TR-FRET, Lance). As to conditions: 0.6 nM AKT1 E17K, 50 nM Ulight-CREBtide, either 50 μM ATP or 2 mM ATP, 60 min at RT. Format: biochemical. The essentials:
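IC50 came from a 10-point, 4-parameter fit of the 665/620 TR-FRET ratio read with Eu-anti-phospho-CREB (Ser133). Reaction at RT for 60 min after 15 min compound preincubation, using 0.6 nM PDPK1-activated full-length AKT1 E17K (insect-cell), 50 nM Ulight-CREBtide, ATP at 50 μM or 2 mM, HEPES pH 7.5, 1% DMSO.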
Background: TR-FRET usually uses a lanthanide donor and a delayed reading to cut background.

Test [2] has as its target T2, human recombinant kinase full-length wildtype AKT1 (Homo sapiens, UniProt P31749).
T2 construct: Purified human recombinant kinase full-length wildtype AKT1 was expressed in insect cells; made in house; host or cells: insect cells
Kind of test: AKT1 kinase assay (wildtype, TR-FRET, Lance). It is filed as biochemical. As to conditions: 0.6 nM wildtype AKT1, 50 nM Ulight-CREBtide, either 50 μM ATP or 2 mM ATP, 60 min at RT. The method, boiled down: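 TR-FRET 665/620 ratio quantified phospho-CREBtide formed by PDPK1-activated full-length human AKT1 (0.6 nM, insect-cell-derived) over 60 min at RT with 50 nM ULight-CREBtide and either 50 μM or 2 mM ATP. Compounds were preincubated 15 min with enzyme; IC50 came from 4-parameter fits of 10-point duplicates.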

pIC50: −log10 of the molar value.

T2 sequence (P31749 whole entry): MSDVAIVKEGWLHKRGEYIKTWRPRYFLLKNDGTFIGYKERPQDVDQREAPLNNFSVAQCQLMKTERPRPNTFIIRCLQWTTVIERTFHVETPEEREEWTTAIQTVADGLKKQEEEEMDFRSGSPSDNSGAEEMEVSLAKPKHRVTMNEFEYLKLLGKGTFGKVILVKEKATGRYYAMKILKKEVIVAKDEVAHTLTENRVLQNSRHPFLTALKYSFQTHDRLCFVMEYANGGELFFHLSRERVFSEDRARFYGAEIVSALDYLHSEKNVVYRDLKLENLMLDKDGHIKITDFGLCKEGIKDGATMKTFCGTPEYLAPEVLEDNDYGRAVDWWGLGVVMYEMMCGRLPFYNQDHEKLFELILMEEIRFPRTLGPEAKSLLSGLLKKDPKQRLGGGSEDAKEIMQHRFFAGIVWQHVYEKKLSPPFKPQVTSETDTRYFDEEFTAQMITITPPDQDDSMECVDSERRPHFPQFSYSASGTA
T1 sequence (P31749 whole entry E17K): as the sequence (P31749 whole entry) above, with E17K counted along it

On to `CN(CCc1ccc(-n2c(-c3cccnc3N)nc3ccc(-c4ccccc4)nc32)cc1)[C@H]1CC[C@H](C(=O)O)CC1` [Compound I-158], for which the values for the pIC50 in test [1] and in test [2] were 5.70 to 6.30 and greater than 4.70, respectively.
For `Nc1ncccc1-c1nc2ccc(-c3ccccn3)cc2n1-c1ccc(C2CN(C[C@H]3CC[C@H](C(=O)O)CC3)C2)cc1` [Compound I-68, (1r,4r)-4-((3-(4-(2-(2-aminopyridin-3-yl)-6-(pyridin-2-yl)-1H-benzo[d]imidazol-1-yl)phenyl)azetidin-1-yl)methyl)cyclohexane-1-carboxylic acid] the same measures were no more than 5.70 and greater than 4.70.
Regarding `Cc1nc(NC(=O)C2CCC(C)(C(=O)O)CC2)ccc1-n1c(-c2cccnc2N)nc2ccc(-c3ccccc3)nc21` (centres unmarked) [Compound I-128, 4-((5-(2-(2-aminopyridin-3-yl)-5-phenyl-3H-imidazo[4,5-b]pyridin-3-yl)-6-methylpyridin-2-yl)carbamoyl)-1-methylcyclohexane-1-carboxylic acid], the pIC50 is 5.70 to 6.30 in test [1] and greater than 4.70 in test [2].
`Nc1ncccc1-c1nc2ccc(-c3ccccc3)nc2n1-c1ccc(CN(CC(F)(F)F)[C@H]2CC[C@H](C(=O)O)CC2)cc1` (single isomer, unassigned) [Compound I-188, (1r,4r)-4-((4-(2-(2-aminopyridin-3-yl)-5-phenyl-3H-imidazo[4,5-b]pyridin-3-yl)benzyl)(2,2,2-trifluoroethyl)amino)cyclohexane-1-carboxylic acid]: the pIC50 in test [1] is no more than 5.70; in test [2], greater than 4.70.
For `CN(Cc1ccc(-n2c(-c3cccnc3N)nc3ccc(-c4ccccc4)nc32)cc1)[C@@H]1CC[C@@H](C(=O)O)C1` (stereo in doubt) [Compound I-171] the same measures were greater than 6.30 and greater than 4.70.
On the same counts, the results for `Cc1nc(NC(=O)[C@H]2CC[C@H](C(N)=O)CC2)ccc1-n1c(-c2cccnc2N)nc2ccc(-c3ccccc3)nc21` [Compound I-142, trans-N-(5-(2-(2-aminopyridin-3-yl)-5-phenyl-3H-imidazo[4,5-b]pyridin-3-yl)-6-methylpyridin-2-yl)cyclohexane-1,4-dicarboxamide] are 5.70 to 6.30 and greater than 4.70.
`Nc1ncccc1-c1nc2ccc(-c3ccccc3)nc2n1-c1ccc(N2CCC(C(=O)O)CC2)nc1` [Compound I-27, 1-(5-(2-(2-aminopyridin-3-yl)-5-phenyl-3H-imidazo[4,5-b]pyridin-3-yl)pyridin-2-yl)piperidine-4-carboxylic acid]: the pIC50 in test [1] was 5.70 to 6.30; in test [2], greater than 4.70.
For the compound `Nc1ncccc1-c1nc2ccc(-c3ccccc3)nc2n1-c1ccc(C(=O)N2CCCC(C(=O)O)C2)cc1` (centres unmarked) [Compound I-21, 1-(4-(2-(2-aminopyridin-3-yl)-5-phenyl-3H-imidazo[4,5-b]pyridin-3-yl)benzoyl)piperidine-3-carboxylic acid], the pIC50 is no more than 5.70 in test [1] and greater than 4.70 in test [2].
For `CC(C)Oc1ccc2nc(-c3cccnc3N)n(-c3ccc(NC(=O)[C@H]4CC[C@H](C(=O)O)CC4)nc3)c2c1` [Compound I-124, (1r,4r)-4-((5-(2-(2-aminopyridin-3-yl)-6-isopropoxy-1H-benzo[d]imidazol-1-yl)pyridin-2-yl)carbamoyl)cyclohexane-1-carboxylic acid] the same measures were no more than 5.70 and greater than 4.70.
For the compound `Nc1ncccc1-c1nc2ccc(-c3ccccc3)nc2n1-c1ccc(CN2CCC(C(=O)O)CC2)c(F)c1` [Compound I-30, 1-(4-(2-(2-aminopyridin-3-yl)-5-phenyl-3H-imidazo[4,5-b]pyridin-3-yl)-2-fluorobenzyl)piperidine-4-carboxylic acid], the pIC50 in test [1] is no more than 5.70; in test [2], greater than 4.70.
With `Nc1ncccc1-c1nc2ccc(-c3ccccc3)nc2n1-c1ccc(C(=O)N[C@H]2CC[C@H](C(=O)O)CC2)cc1` [Compound I-16, (1r,4r)-4-(4-(2-(2-aminopyridin-3-yl)-5-phenyl-3H-imidazo[4,5-b]pyridin-3-yl)benzamido)cyclohexane-1-carboxylic acid], the pIC50 in test [1] is greater than 6.30; in test [2] it was greater than 4.70.
For `Cc1cc(C2CN(C[C@H]3CC[C@H](C(=O)O)CC3)C2)ccc1-n1c(-c2cccnc2N)nc2ccc(-c3ccccc3F)nc21` [Compound I-209] the same measures were 5.70 to 6.30 and greater than 4.70.
For `CN(Cc1ccc(-n2c(-c3cccnc3N)nc3ccc(-c4ccccc4)nc32)cc1)[C@H]1CC[C@H](C(N)=O)CC1` [Compound I-187, trans-4-((4-(2-(2-aminopyridin-3-yl)-5-phenyl-3H-imidazo[4,5-b]pyridin-3-yl)benzyl)(methyl)amino)cyclohexane-1-carboxamide] the same measures were no more than 5.70 and greater than 4.70.
As for `Nc1ncccc1-c1nc2ccc(N3CCOCC3)cc2n1-c1ccc(NC(=O)[C@H]2CC[C@H](C(=O)O)CC2)cc1` [Compound I-33, (1r,4r)-4-((4-(2-(2-aminopyridin-3-yl)-6-morpholino-1H-benzo[d]imidazol-1-yl)phenyl)carbamoyl)cyclohexane-1-carboxylic acid], the pIC50 in test [1] is no more than 5.70; in test [2] it was greater than 4.70.
On the same counts, the results for `Cc1nc(NC[C@@H]2CC[C@@H](C(=O)O)C2)ccc1-n1c(-c2cccnc2N)nc2ccc(-c3ccccc3)nc21` [Compound I-227] are 5.70 to 6.30 and greater than 4.70.
In the case of `Nc1ncccc1-c1nc2cc(-c3ccc(F)cc3)cnc2n1-c1ccc(C2CN(C[C@H]3CC[C@H](C(=O)O)CC3)C2)cc1` [Compound I-67, (1r,4r)-4-((3-(4-(2-(2-aminopyridin-3-yl)-6-(4-fluorophenyl)-3H-imidazo[4,5-b]pyridin-3-yl)phenyl)azetidin-1-yl)methyl)cyclohexane-1-carboxylic acid], the pIC50 was no more than 5.70 in test [1] and greater than 4.70 in test [2].
On the same counts, the results for `Nc1ncccc1-c1nc2ccc(-c3ccccc3)nc2n1-c1ccc(C2CN(CC34CCC(C(=O)O)(CC3)CC4)C2)cc1` [Compound I-146] are greater than 6.30 and greater than 4.70.
For `Cc1nc(NC(=O)[C@H]2CC[C@H](C(=O)O)CC2)ccc1-n1c(-c2cccnc2N)nc2ccc(-c3ccccn3)cc21` [Compound I-130, (1r,4r)-4-((5-(2-(2-aminopyridin-3-yl)-6-(pyridin-2-yl)-1H-benzo[d]imidazol-1-yl)-6-methylpyridin-2-yl)carbamoyl)cyclohexane-1-carboxylic acid] the same measures were no more than 5.70 and greater than 4.70.
For `CC(C)(C(=O)O)C1CCN(Cc2ccc(-n3c(-c4cccnc4N)nc4ccc(-c5ccccc5)nc43)cc2)C1` (centres unmarked) [Compound I-105, 2-[1-[[4-[2-(2-amino-3-pyridyl)-5-phenyl-imidazo[4,5-b]pyridin-3-yl]phenyl]methyl]pyrrolidin-3-yl]-2-methyl-propanoic acid], the pIC50 in test [1] is 5.70 to 6.30; in test [2] it was greater than 4.70.
For `Nc1ncccc1-c1nc2ccc(-c3ccccc3)nc2n1-c1ccc(NC(=O)C2CC3C(C2)C3C(=O)O)nc1` (centres unmarked) [Compound I-48, 3-((5-(2-(2-aminopyridin-3-yl)-5-phenyl-3H-imidazo[4,5-b]pyridin-3-yl)pyridin-2-yl)carbamoyl)bicyclo[3.1.0]hexane-6-carboxylic acid] the same measures were greater than 6.30 and greater than 4.70.
For `CN(Cc1ccc(-n2c(-c3cccnc3N)nc3ccc(-c4ccccc4)nc32)cc1)C1CC[C@H](C(=O)O)C1` (some centres unmarked) [Compound I-172] the same measures were greater than 6.30 and greater than 4.70.
On to `Nc1ncccc1-c1nc2ccc(-c3ccccc3)nc2n1-c1ccc(C2CN(C[C@H]3CC[C@@H](C(=O)O)CC3)C2)cc1` [Compound I-36, (1s,4s)-4-((3-(4-(2-(2-aminopyridin-3-yl)-5-phenyl-3H-imidazo[4,5-b]pyridin-3-yl)phenyl)azetidin-1-yl)methyl)cyclohexane-1-carboxylic acid], for which the pIC50 in test [1] was 5.70 to 6.30; in test [2] it was greater than 4.70.
`CC(NC1CCC(C(=O)O)C1)c1ccc(-n2c(-c3cccnc3N)nc3ccc(-c4ccccc4)nc32)cc1F` (centres unmarked) [Compound I-81, 3-((1-(4-(2-(2-aminopyridin-3-yl)-5-phenyl-3H-imidazo[4,5-b]pyridin-3-yl)-2-fluorophenyl)ethyl)amino)cyclopentane-1-carboxylic acid]: the pIC50 is no more than 5.70 in test [1] and greater than 4.70 in test [2].
On the same counts, the results for `Nc1ncccc1-c1nc2ccc(C3CCOCC3)cc2n1-c1ccc(NC(=O)[C@H]2CC[C@H](C(=O)O)CC2)cc1` [Compound I-34, (1r,4r)-4-((4-(2-(2-aminopyridin-3-yl)-6-(tetrahydro-2H-pyran-4-yl)-1H-benzo[d]imidazol-1-yl)phenyl)carbamoyl)cyclohexane-1-carboxylic acid] are no more than 5.70 and greater than 4.70.
With `CC1(C)C[C@H](CN2CC(c3ccc(-n4c(-c5cccnc5N)nc5ccc(-c6ccccc6)nc54)cc3)C2)CC(C)(C)[C@@H]1C(=O)O` [Compound I-148], the pIC50 in test [1] was greater than 6.30; in test [2], greater than 4.70.

Usually pIC50 stands for the IC50 on a negative log10 scale, so that one unit is a factor of ten.
